The results in this text go back to PMC6086658, “Unified mechanisms for self-RNA recognition by RIG-I Singleton-Merten syndrome variants” (eLife, 2018).

Substitutions are numbered along the chain they refer to. {Cy3} = Cy3 fluorescent label

For orientation: Kd means the equilibrium constant for the complex coming apart.

In data set [1] the target is T1, RIG-I (Homo sapiens, UniProt O95786).
T1 construct: Recombinant full-length human RIG-I or RIG-I single amino acid mutants (1–925, N-terminal His-tag); made in house; host or cells: High Five (Trichoplusia ni) insect cells, baculovirus, pFBDM vector
T1 sequence (O95786 1-925): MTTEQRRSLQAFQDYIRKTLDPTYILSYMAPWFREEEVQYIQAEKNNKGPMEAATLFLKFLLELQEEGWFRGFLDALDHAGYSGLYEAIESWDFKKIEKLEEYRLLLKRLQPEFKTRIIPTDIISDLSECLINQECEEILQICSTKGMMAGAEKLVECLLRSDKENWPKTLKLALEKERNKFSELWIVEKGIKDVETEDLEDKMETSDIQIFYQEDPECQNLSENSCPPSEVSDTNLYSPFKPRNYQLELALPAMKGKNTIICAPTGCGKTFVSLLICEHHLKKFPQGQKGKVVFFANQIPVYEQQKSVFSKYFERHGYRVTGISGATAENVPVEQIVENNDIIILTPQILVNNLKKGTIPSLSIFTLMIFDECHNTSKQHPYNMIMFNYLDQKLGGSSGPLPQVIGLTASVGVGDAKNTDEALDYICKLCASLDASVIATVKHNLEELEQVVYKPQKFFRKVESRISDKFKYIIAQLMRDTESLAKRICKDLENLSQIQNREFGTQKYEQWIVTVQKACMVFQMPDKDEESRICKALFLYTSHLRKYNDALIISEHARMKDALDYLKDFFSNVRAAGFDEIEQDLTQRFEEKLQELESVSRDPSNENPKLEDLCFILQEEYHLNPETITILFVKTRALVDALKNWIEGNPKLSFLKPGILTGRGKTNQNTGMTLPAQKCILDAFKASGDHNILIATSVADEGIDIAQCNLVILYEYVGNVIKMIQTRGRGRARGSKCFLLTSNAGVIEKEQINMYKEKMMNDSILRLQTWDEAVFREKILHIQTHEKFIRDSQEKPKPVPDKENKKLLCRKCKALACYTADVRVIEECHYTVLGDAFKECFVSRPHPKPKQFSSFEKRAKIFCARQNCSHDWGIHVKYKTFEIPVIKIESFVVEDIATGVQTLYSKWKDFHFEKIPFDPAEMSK
The experiment in a line: Fluorescence anisotropy RNA binding. The following applies: 10 nM labeled RNA, one-site binding fit, n = 4. How it is done: (§1) Affinities of full-length RIG-I or RIG-I C268F (1–925, N-terminal His-tag) to a Cy3-labeled hpRNA (5'-Cy3-[…]-3', purchased from Biomers, Ulm, Germany) were determined using fluorescence anisotropy. All samples were prepared in 96-well black chimney microplates (Greiner Bio-One, Kremsmünster, Austria). 10 nM RNA was pre-incubated with different protein concentrations (2.4 nM – 5 µM) for 15 min at room temperature in assay buffer (25 mM HEPES, 50 mM KCl, 5 mM MgCl2, 1 mM DTT, pH 7). Fluorescence anisotropy was measured after the addition of 5 mM ATP using a TECAN M1000 microplate reader (Tecan, Männedorf, Switzerland) at λex/em = 530/570 nm and gain = 130 during a time course of 25 min in 1 min intervals. Assays were performed four times in independent experiments using the same protein purification batch. For determination of affinities, anisotropy values between 15 and 20 min measuring time were averaged and fit to the following single-site binding model using R ([R Development Core Team, 2013]):(1) y=Bmax[P]/P+KD where y is the observed anisotropy, [P] is the protein concentration, Bmax is the maximal anisotropy and KD is the dissociation constant. Fitting was performed globally on all available datasets. Representative values in figures are mean values ± SD.

In data set [2] the target is T2, RIG-I C268F (Homo sapiens, UniProt O95786, C268F).
T2 construct: made in house; host or cells: High Five (Trichoplusia ni) insect cells, baculovirus, pFBDM vector
T2 sequence (O95786 1-925 C268F): T1 sequence (O95786 1-925) with C268F
The experiment in a line: Fluorescence anisotropy RNA binding. The conditions noted are these: 10 nM labeled RNA, one-site binding fit, n = 4. How it is done: as §1
Background: Fluorescence polarisation rises when a labelled molecule tumbles more slowly, as on binding a larger partner.

The target in data set [3] is T2, RIG-I C268F. Description: MANT-nucleotide binding, tryptophan fluorescence FRET. The method, then:
(§2) Binding of MANT-ATP and MANT-ATPγS to different full-length RIG-I mutants (1–925, N-terminal His-tag) was determined via Förster resonance energy transfer from RIG-I to MANT-ATP (Jena Bioscience, Jena, Germany). All samples were prepared in 96-well black chimney microplates. 2.2 µM protein and equimolar concentrations of a 14mer dsRNA (5'-CGACGCUAGCGUCG-3', see 'Protein crystalization') were pre-incubated with different MANT-ATP concentrations (0.2 µM – 200 µM) for 15 min at room temperature in assay buffer (25 mM HEPES, 50 mM NaCl, 5 mM MgCl2, 1 mM DTT, pH 7). Fluorescence of MANT-ATP was measured in a TECAN M1000 microplate reader at λex/em = 290/448 nm, gain = 170 using an average of five reads per well. Assays were performed four times in independent experiments using the same protein purification batch. For determination of affinities fluorescence values were fitted to Equation (1) using R, where y is the fluorescence, [P] is the protein concentration, Bmax is the maximal fluorescence and KD is the dissociation constant. Fitting was performed globally on all available datasets. Representative values in figures are mean values ± SD.

The target of data set [4] is T1, RIG-I. The description is as above. The following applies: n = 4. How it is done:
as §2, with “All samples were prepared in 96-well black chimney microplates. 2.2 µM protein and equimolar concentrations of a 14mer dsRNA (5'-CGACGCUAGCGUCG-3', see 'Protein crystalization') were pre-incubated with different MANT-ATP concentrations (0.2 µM – 200 µM) for 15 min at room temperature in assay buffer (25 mM HEPES, 50 mM NaCl, 5 mM MgCl2, 1 mM DTT, pH 7).” left out

Another data set deals with T3, RIG-I wild type (human, UniProt O95786 1-925).
T3 sequence: T1 sequence (O95786 1-925)
The experiment in a line: fluorescence anisotropy; no ATP, 5 mM Mg2+; Fluorescence anisotropy: 25 mM HEPES pH 7, 50 mM KCl, 5 mM MgCl2, 1 mM DTT, +/- 5 mM ATP, 10 nM RNA, room temperature. The conditions noted are these: protein: recombinant; tags: N-terminal His-tag; label: 5'-Cy3; hairpin with non-base-paired ends.

Data set [5] concerns the target T4, RIG-I C268F (human, UniProt O95786 1-925, C268F).
T4 sequence: T1 sequence (O95786 1-925) with C268F
The description is as above. The following applies: protein: recombinant; tags: N-terminal His-tag; label: 5'-Cy3; hairpin with non-base-paired ends.

A further data set addresses T5, RIG-I Δ2CARD C268F (human, UniProt O95786 232-925, C268F).
T5 sequence: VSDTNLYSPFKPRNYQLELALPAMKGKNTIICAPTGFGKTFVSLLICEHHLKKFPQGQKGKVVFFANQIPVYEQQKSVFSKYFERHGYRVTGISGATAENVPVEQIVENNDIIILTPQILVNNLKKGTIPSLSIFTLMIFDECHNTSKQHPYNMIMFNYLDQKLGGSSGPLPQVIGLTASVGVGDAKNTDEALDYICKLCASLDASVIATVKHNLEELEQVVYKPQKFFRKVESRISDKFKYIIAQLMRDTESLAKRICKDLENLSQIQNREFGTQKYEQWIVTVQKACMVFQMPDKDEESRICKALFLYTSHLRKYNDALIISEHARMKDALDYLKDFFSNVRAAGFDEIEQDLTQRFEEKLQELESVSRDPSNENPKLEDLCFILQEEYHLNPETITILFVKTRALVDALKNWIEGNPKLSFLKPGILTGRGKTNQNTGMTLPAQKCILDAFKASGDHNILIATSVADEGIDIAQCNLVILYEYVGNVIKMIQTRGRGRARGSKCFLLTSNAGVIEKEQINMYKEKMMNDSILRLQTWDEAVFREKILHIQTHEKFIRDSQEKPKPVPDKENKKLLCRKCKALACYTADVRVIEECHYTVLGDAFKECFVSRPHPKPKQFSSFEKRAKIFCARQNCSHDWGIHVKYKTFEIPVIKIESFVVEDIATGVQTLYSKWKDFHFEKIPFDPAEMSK
The experiment in a line: crystal structure; co-crystallized with ADP-BeFx or ATP; no nucleotide bound in structure; Fluorescence anisotropy: 25 mM HEPES pH 7, 50 mM KCl, 5 mM MgCl2, 1 mM DTT, +/- 5 mM ATP, 10 nM RNA, room temperature. The following applies: protein: recombinant; tags: N-terminal His-tag (insect cells) or His-SUMO3 cleaved off (E. coli); blunt, palindromic self-duplex.

As to “5'-Cy3-CCACCCGCCCCCCUAGUGAGGGGGGCGGGCC-3' (RNA, 5' {Cy3}, backbone not given here; RNA hairpin ligand with non-base-paired ends, used in fluorescence anisotropy binding assays) [fluorescently labeled 14mer dsRNA, Cy3-labeled hairpin RNA containing non-base-paired RNA ends, purchased from Biomers]”, the Kd stood at 0.54 µM with RIG-I [1] (absence of ATP, read-out: KD, RIG-I); 1.04 µM with RIG-I [1] (presence of 5 mM ATP, read-out: KD, RIG-I + ATP); 0.098 µM with RIG-I C268F [2] (absence of ATP, read-out: KD, RIG-I C268F); 0.058 µM with RIG-I C268F [2] (presence of 5 mM ATP, read-out: KD, RIG-I C268F + ATP).

In the case of MANT-ATPγS, the Kd came to 116 ± 13 µM at RIG-I C268F [3] (absence of RNA, n = 4, read-out: Affinity (KD) to RIG-I C268F); 147 ± 55 µM on RIG-I C268F [3] (presence of equimolar 14mer dsRNA, n.f. = no fit possible as no saturation was reached, read-out: Affinity (KD) to RIG-I C268F + RNA); 58 ± 7 µM at RIG-I [4] (absence of RNA, full-length His-RIG-I, read-out: Affinity (KD) to RIG-I); 11 ± 1 µM at RIG-I [4] (presence of equimolar 14mer dsRNA, read-out: Affinity (KD) to RIG-I + RNA).

B1: Cy3-hpRNA (14mer stem hairpin) (structured_RNA)
RNA: CCACCCGCCCCCCUAGUGAGGGGGGCGGGCC
For B1, the binding result with RIG-I wild type and in the data set with RIG-I C268F [5] was “binds” in each case.

B2: 14mer dsRNA (dsRNA)
RNA 1: CGACGCUAGCGUCG
RNA 2: CGACGCUAGCGUCG
Regarding B2, the binding result in the data set with RIG-I Δ2CARD C268F was “binds”.
